# Assay results from PMC5224920, “Assessing the mechanism and therapeutic potential of modulators of the human Mediator complex-associated protein kinases” (eLife, 2016).
# System: 12 single or co-culture in vitro tissue models of primary cells
# Experiment: Culture/co-culture cell model panel, extracellular biomarkers (DiscoveRx); for CCL2/MCP-1: reference of the scale not given here; for CXCL8/IL-8: reference of the scale not given here; for CXCL9/MIG: reference of the scale not given here; for M-CSF: reference of the scale not given here; for SRB: reference of the scale not given here
# Assay type: cell-based, human
# [1] = /HDFNo unstimulated fibroblasts, 1.00E4 nM
# [2] = /HDFNo unstimulated fibroblasts, 1.11E3 nM
# [3] = /HDFNo unstimulated fibroblasts, 1.23E2 nM
# [4] = /HDFNo unstimulated fibroblasts, 1.37E1 nM
# [5] = /HDFNo unstimulated fibroblasts, 3.33E3 nM
# [6] = /HDFNo unstimulated fibroblasts, 3.70E2 nM
# [7] = /HDFNo unstimulated fibroblasts, 4.12E1 nM
# [8] = /HDFNo unstimulated fibroblasts, 4.57E0 nM
structure (smiles),measurement,setting,value
Cc1n[nH]c2ncc(C(=O)N3CCC[C@H]3c3ccc(Cl)cc3)cc12 [CMPD4],M-CSF,"/HDF3CT, 3.70E2 nM",-0.052
same,MMP-1,"/HDF3CT, 3.70E2 nM",-0.021
same,PAI-I,"/HDF3CT, 3.70E2 nM",-0.054
same,SRB,"/HDF3CT, 3.70E2 nM",0.014
same,TIMP-2,"/HDF3CT, 3.70E2 nM",0.055
same,CCL2/MCP-1,"/HDF3CT, 4.12E1 nM",-0.025
same,CD54/ICAM-1,"/HDF3CT, 4.12E1 nM",-0.054
same,CD106/VCAM-1,"/HDF3CT, 4.12E1 nM",0.009
same,CXCL8/IL-8,"/HDF3CT, 4.12E1 nM",-0.089
same,CXCL9/MIG,"/HDF3CT, 4.12E1 nM",-0.015
same,CXCL10/IP-10,"/HDF3CT, 4.12E1 nM",0.023
same,Collagen I,"/HDF3CT, 4.12E1 nM",-0.036
same,M-CSF,"/HDF3CT, 4.12E1 nM",-0.072
same,MMP-1,"/HDF3CT, 4.12E1 nM",0.049
same,PAI-I,"/HDF3CT, 4.12E1 nM",-0.006
same,SRB,"/HDF3CT, 4.12E1 nM",0.013
same,TIMP-2,"/HDF3CT, 4.12E1 nM",0.105
same,CCL2/MCP-1,"/HDF3CT, 4.57E0 nM",0.071
same,CD54/ICAM-1,"/HDF3CT, 4.57E0 nM",-0.030
same,CD106/VCAM-1,"/HDF3CT, 4.57E0 nM",0.022
same,CXCL8/IL-8,"/HDF3CT, 4.57E0 nM",-0.033
same,CXCL9/MIG,"/HDF3CT, 4.57E0 nM",0.019
same,CXCL10/IP-10,"/HDF3CT, 4.57E0 nM",0.003
same,Collagen I,"/HDF3CT, 4.57E0 nM",0.009
same,M-CSF,"/HDF3CT, 4.57E0 nM",-0.072
same,MMP-1,"/HDF3CT, 4.57E0 nM",0.086
same,PAI-I,"/HDF3CT, 4.57E0 nM",0.017
same,SRB,"/HDF3CT, 4.57E0 nM",0.023
same,TIMP-2,"/HDF3CT, 4.57E0 nM",0.088
same,CXCL8/IL-8,[1],0.032
same,CXCL9/MIG,[1],0.127
same,CXCL10/IP-10,[1],0.013
same,CXCL11/I-TAC,[1],-0.046
same,EGFR,[1],0.051
same,M-CSF,[1],0.0038
same,MMP-1,[1],-0.013
same,PAI-I,[1],-0.051
same,Proliferation_72hr,[1],0.179
same,SRB,[1],0.000631
same,TIMP-1,[1],0.019
same,TIMP-2,[1],-0.228
same,CXCL8/IL-8,[2],-0.076
same,CXCL9/MIG,[2],-0.081
same,CXCL10/IP-10,[2],-0.021
same,CXCL11/I-TAC,[2],-0.035
same,EGFR,[2],-0.009
same,M-CSF,[2],-0.068
same,MMP-1,[2],-0.043
same,PAI-I,[2],-0.052
same,Proliferation_72hr,[2],0.134
same,SRB,[2],0.024
same,TIMP-1,[2],0.00471
same,TIMP-2,[2],-0.013
same,CXCL8/IL-8,[3],-0.103
same,CXCL9/MIG,[3],-0.075
same,CXCL10/IP-10,[3],-0.039
same,CXCL11/I-TAC,[3],-0.045
same,EGFR,[3],-0.011
same,M-CSF,[3],0.013
same,MMP-1,[3],-0.032
same,PAI-I,[3],0.00163
same,Proliferation_72hr,[3],0.087
same,SRB,[3],0.010
same,TIMP-1,[3],-0.034
same,TIMP-2,[3],0.076
same,CXCL8/IL-8,[4],-0.022
same,CXCL9/MIG,[4],-0.044
same,CXCL10/IP-10,[4],-0.0053
same,CXCL11/I-TAC,[4],-0.037
same,EGFR,[4],0.035
same,M-CSF,[4],0.000135
same,MMP-1,[4],-0.004
same,PAI-I,[4],-0.012
same,Proliferation_72hr,[4],0.060
same,SRB,[4],0.007
same,TIMP-1,[4],0.000829
same,TIMP-2,[4],0.075
same,CXCL8/IL-8,[5],-0.039
same,CXCL9/MIG,[5],-0.027
same,CXCL10/IP-10,[5],-0.048
same,CXCL11/I-TAC,[5],-0.031
same,EGFR,[5],0.046
same,M-CSF,[5],-0.016
same,MMP-1,[5],-0.033
same,PAI-I,[5],-0.029
same,Proliferation_72hr,[5],0.157
same,SRB,[5],0.00444
same,TIMP-1,[5],0.014
same,TIMP-2,[5],-0.121
same,CXCL8/IL-8,[6],-0.076
same,CXCL9/MIG,[6],-0.059
same,CXCL10/IP-10,[6],-0.040
same,CXCL11/I-TAC,[6],-0.00462
same,EGFR,[6],-0.018
same,M-CSF,[6],-0.00531
same,MMP-1,[6],-0.010
same,PAI-I,[6],-0.018
same,Proliferation_72hr,[6],0.139
same,SRB,[6],0.020
same,TIMP-1,[6],0.003
same,TIMP-2,[6],0.082
same,CXCL8/IL-8,[7],-0.024
same,CXCL9/MIG,[7],-0.065
same,CXCL10/IP-10,[7],-0.026
same,CXCL11/I-TAC,[7],-0.032
same,EGFR,[7],0.00663
same,M-CSF,[7],-0.024
same,MMP-1,[7],-0.026
same,PAI-I,[7],-0.010
same,Proliferation_72hr,[7],0.102
same,SRB,[7],0.013
same,TIMP-1,[7],-0.020
same,TIMP-2,[7],0.059
same,CXCL8/IL-8,[8],0.034
same,CXCL9/MIG,[8],0.056
same,CXCL10/IP-10,[8],0.00467
same,CXCL11/I-TAC,[8],-0.00186
same,EGFR,[8],0.019
same,M-CSF,[8],-0.012
same,MMP-1,[8],0.055
same,PAI-I,[8],0.075
same,Proliferation_72hr,[8],0.072
same,SRB,[8],0.043
same,TIMP-1,[8],0.048
same,TIMP-2,[8],-0.057
same,CCL2/MCP-1,"/HDFNo, 1.00E4 nM",0.040
same,CD54/ICAM-1,"/HDFNo, 1.00E4 nM",0.094
same,CD106/VCAM-1,"/HDFNo, 1.00E4 nM",0.027
same,Collagen I,"/HDFNo, 1.00E4 nM",0.067
same,Collagen III,"/HDFNo, 1.00E4 nM",-0.015
same,CCL2/MCP-1,"/HDFNo, 1.11E3 nM",0.00326
same,CD54/ICAM-1,"/HDFNo, 1.11E3 nM",-0.048
same,CD106/VCAM-1,"/HDFNo, 1.11E3 nM",-0.067
same,Collagen I,"/HDFNo, 1.11E3 nM",-0.022
same,Collagen III,"/HDFNo, 1.11E3 nM",0.013
same,CCL2/MCP-1,"/HDFNo, 1.23E2 nM",-0.009
same,CD54/ICAM-1,"/HDFNo, 1.23E2 nM",-0.013
same,CD106/VCAM-1,"/HDFNo, 1.23E2 nM",-0.096
same,Collagen I,"/HDFNo, 1.23E2 nM",-0.065
same,Collagen III,"/HDFNo, 1.23E2 nM",0.012
same,CCL2/MCP-1,"/HDFNo, 1.37E1 nM",-0.022
same,CD54/ICAM-1,"/HDFNo, 1.37E1 nM",-0.024
same,CD106/VCAM-1,"/HDFNo, 1.37E1 nM",0.020
same,Collagen I,"/HDFNo, 1.37E1 nM",-0.080
same,Collagen III,"/HDFNo, 1.37E1 nM",0.026
same,CCL2/MCP-1,"/HDFNo, 3.33E3 nM",-0.021
same,CD54/ICAM-1,"/HDFNo, 3.33E3 nM",-0.005
same,CD106/VCAM-1,"/HDFNo, 3.33E3 nM",-0.034
same,Collagen I,"/HDFNo, 3.33E3 nM",-0.014
same,Collagen III,"/HDFNo, 3.33E3 nM",0.025
same,CCL2/MCP-1,"/HDFNo, 3.70E2 nM",-0.005
same,CD54/ICAM-1,"/HDFNo, 3.70E2 nM",-0.029
same,CD106/VCAM-1,"/HDFNo, 3.70E2 nM",-0.058
same,Collagen I,"/HDFNo, 3.70E2 nM",-0.055
same,Collagen III,"/HDFNo, 3.70E2 nM",0.000891
same,CCL2/MCP-1,"/HDFNo, 4.12E1 nM",0.007
same,CD54/ICAM-1,"/HDFNo, 4.12E1 nM",-0.036
same,CD106/VCAM-1,"/HDFNo, 4.12E1 nM",-0.047
same,Collagen I,"/HDFNo, 4.12E1 nM",-0.086
same,Collagen III,"/HDFNo, 4.12E1 nM",0.030
same,CCL2/MCP-1,"/HDFNo, 4.57E0 nM",0.025
same,CD54/ICAM-1,"/HDFNo, 4.57E0 nM",0.028
same,CD106/VCAM-1,"/HDFNo, 4.57E0 nM",0.010
